The results in this text go back to patent US20230295571A1, “COMPOSITIONS AND METHODS FOR STEM CELL CHONDROGENESIS” (Washington University, priority 2020, published 2023).

Molecules are shown by their SMILES.

Experiment [1] deals with hiPSC chondrogenic pellets. As to the kind of experiment: Biochemical analysis of cartilaginous matrix production (GAG/DNA) in hiPSC chondrogenic pellets. The experiment is classed as cell-based, human. Conditions: 1 μM inhibitor + TGF-β3 during pellet culture, d28/d42, vs TGF-β3 or other regimens. The protocol: Chondrogenic differentiation. Cells dissociated at the Cp stage were resuspended at 5×10^5 cells per mL in chondrogenic medium consisting of DMEM/F-12, 1% FBS, 1% ITS+, 55 μM β-mertcaptoethanol, 100 nM dexamethasone (DEX; Sigma-Aldrich, #D4902), 1% NEAA (Gibco, #11140050), 1% P/S, 10 ng ml^−1 human transforming growth factor-beta 3 (TGF-β3; R&D Systems, #243-B3-010), 50 μg ml^−1 L-ascorbic acid 2-phosphate (ascorbate; Sigma-Aldrich, #A8960), and 40 μg ml^−1 L-Proline (proline; Sigma-Aldrich, #P5607). Cells were then centrifuged for 5 min at 300×g to form a pellet. Chondrogenic pellets were cultured at 37° C. for up to the timepoints required for various experiments.
WNT-C59 and ML329 treatment for WNT and MITF inhibition. For WNT-C59 treatment for WNT inhibition during chondrogenesis, pellets were treated with either 10 ng ml^−1 TGF-β3 (control group) or a combination of 10 ng ml^−1 TGF-β3 and 1 μM WNT-C59 in a chondrogenic medium from d0 to d42 as appropriate. […]
Biochemical analysis of cartilaginous matrix production. […] GAG content, as calculated based on the standard curve, was normalized to double-stranded DNA content to obtain the GAG/DNA ratio.

The subject of experiment [2] is CD146/CD166+ cells at the Cp stage. As to the kind of experiment: FACS for progenitors at the Cp stage. It counts as cell-based, human. The following applies: with BMP4, 1 μM WNT-C59 or 100 ng/ml WNT3A. The protocol: WNT ligands treatment during chondrogenesis. For WNT ligands treatment during chondrogenesis, pellets were treated with either 10 ng ml^−1 TGF-β3 (control group) or a combination of 10 ng ml^−1 TGF-β3 and 100 ng ml^−1 individual WNT ligand (WNT2B, WNT3A, WNT4, WNT5B, or WNT7B, all from R&D system) in chondrogenic medium from d0 to d42 as appropriate. For WNT ligands treatment during the Cp stage, cells were supplemented with either 20 ng ml^−1 BMP4 (R&D Systems, #314-BP-010) alone (control group), a combination of 20 ng ml^−1 BMP4 and 1 μM WNT-059, or a combination of 20 ng ml^−1 BMP4 and 100 ng ml^−1 WNT3A (R&D Systems, #5036-WN-010) in mesodermal differentiation medium from d7 to d12.
FACS for progenitors. […] Data were analyzed using FlowJo software (version 10.5.3).

For `Cc1cc(-c2ccc(CC(=O)Nc3ccc(-c4cccnc4)cc3)cc2)ccn1` [WNT-C59], the GAG/DNA ratio result in experiment [1] is “significantly increased”. Besides, in experiment [2], the “percentage of CD146/CD166+ cells” value is “largely decreased”.
